Key:
[1] = organism: Canis familiaris; experiment: Ability to block B-HT 920-induced contraction in canine saphenous vein.; type: functional; details: Canis lupus familiaris
[2] = organism: Cavia porcellus; experiment: Ability to block B-HT 920-induced inhibition of inotropic response to field stimulation in superfused guinea pig atrium; type: functional; details: Cardiac atrium
[3] = organism: Oryctolagus cuniculus; experiment: Ability to block norepinephrine-induced contraction in rabbit aorta.; type: functional
[4] = biological target: T1, Alpha-1D adrenergic receptor (Homo sapiens, UniProt P25100); experiment: biochemical
T1 sequence (P25100 whole entry): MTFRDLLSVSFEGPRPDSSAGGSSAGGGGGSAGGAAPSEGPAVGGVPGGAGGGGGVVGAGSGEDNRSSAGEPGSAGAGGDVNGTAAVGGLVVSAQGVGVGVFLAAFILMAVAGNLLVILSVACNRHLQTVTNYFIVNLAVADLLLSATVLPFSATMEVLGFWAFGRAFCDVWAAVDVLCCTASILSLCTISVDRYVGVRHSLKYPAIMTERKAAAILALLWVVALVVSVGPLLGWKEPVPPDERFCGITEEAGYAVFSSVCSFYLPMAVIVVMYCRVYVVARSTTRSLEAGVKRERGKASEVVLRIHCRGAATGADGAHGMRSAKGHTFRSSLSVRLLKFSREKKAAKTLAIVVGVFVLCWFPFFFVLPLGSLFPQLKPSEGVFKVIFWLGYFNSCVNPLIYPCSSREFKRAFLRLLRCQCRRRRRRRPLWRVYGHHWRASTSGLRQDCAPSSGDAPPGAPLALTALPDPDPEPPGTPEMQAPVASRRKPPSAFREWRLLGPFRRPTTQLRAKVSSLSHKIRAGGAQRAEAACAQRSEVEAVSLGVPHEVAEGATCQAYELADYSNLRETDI
Description: Inhibition of [3H]prazosin binding to human Alpha-1D adrenergic receptor expressed in CHO cells

[5] = biological target: T2, Alpha-1A adrenergic receptor (Homo sapiens, UniProt P35348); experiment: biochemical
T2 sequence (P35348 whole entry): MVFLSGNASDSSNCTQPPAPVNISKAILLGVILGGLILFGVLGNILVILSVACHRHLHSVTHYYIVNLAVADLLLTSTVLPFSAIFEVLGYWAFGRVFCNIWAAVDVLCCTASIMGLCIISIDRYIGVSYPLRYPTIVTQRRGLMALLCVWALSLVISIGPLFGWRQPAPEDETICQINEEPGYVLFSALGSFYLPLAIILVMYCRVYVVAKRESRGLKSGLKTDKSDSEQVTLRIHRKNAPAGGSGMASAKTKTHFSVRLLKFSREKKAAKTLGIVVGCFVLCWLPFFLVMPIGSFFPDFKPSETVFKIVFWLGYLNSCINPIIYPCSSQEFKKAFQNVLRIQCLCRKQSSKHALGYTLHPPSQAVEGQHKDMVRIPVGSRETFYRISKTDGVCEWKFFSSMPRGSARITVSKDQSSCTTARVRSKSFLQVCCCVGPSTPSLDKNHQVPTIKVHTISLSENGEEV
Description: Inhibition of [3H]prazosin binding to human Alpha-1A adrenergic receptor expressed in CHO cells

[6] = biological target: T3, Alpha-1B adrenergic receptor (Homo sapiens, UniProt P35368); experiment: biochemical
T3 sequence (P35368 whole entry): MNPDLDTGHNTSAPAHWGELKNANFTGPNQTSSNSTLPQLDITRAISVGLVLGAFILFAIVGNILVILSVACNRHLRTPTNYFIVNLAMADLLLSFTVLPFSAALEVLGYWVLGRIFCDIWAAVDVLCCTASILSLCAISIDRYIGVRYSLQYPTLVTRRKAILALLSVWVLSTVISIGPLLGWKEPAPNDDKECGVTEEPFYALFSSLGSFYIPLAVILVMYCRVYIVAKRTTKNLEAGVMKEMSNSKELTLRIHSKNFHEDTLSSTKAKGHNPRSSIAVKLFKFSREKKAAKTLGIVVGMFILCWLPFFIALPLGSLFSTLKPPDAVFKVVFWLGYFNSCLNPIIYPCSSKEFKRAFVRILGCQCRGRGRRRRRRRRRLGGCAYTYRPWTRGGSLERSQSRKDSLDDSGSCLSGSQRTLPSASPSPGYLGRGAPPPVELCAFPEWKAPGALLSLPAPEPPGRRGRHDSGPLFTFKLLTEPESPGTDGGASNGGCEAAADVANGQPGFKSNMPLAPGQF
Description: Inhibition of [3H]prazosin binding to human Alpha-1B adrenergic receptor expressed in CHO cells

[7] = biological target: T4, Alpha-2B adrenergic receptor (Homo sapiens, UniProt P18089); experiment: biochemical; type: cell-based, CHO
T4 sequence (P18089 whole entry): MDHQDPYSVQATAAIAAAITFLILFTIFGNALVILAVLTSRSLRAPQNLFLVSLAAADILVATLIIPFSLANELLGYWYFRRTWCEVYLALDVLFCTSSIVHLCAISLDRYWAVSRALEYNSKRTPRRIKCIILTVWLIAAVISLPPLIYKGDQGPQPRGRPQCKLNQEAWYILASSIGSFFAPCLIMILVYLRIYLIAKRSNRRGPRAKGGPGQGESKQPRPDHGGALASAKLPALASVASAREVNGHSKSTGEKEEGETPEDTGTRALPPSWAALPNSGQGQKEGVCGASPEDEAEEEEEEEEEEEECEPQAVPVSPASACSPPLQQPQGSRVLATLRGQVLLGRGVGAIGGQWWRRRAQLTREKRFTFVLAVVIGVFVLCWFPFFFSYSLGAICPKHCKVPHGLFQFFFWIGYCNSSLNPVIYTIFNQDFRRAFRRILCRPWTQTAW

[8] = biological target: T5, Alpha-2A adrenergic receptor (Homo sapiens, UniProt P08913); experiment: biochemical
T5 sequence (P08913 whole entry): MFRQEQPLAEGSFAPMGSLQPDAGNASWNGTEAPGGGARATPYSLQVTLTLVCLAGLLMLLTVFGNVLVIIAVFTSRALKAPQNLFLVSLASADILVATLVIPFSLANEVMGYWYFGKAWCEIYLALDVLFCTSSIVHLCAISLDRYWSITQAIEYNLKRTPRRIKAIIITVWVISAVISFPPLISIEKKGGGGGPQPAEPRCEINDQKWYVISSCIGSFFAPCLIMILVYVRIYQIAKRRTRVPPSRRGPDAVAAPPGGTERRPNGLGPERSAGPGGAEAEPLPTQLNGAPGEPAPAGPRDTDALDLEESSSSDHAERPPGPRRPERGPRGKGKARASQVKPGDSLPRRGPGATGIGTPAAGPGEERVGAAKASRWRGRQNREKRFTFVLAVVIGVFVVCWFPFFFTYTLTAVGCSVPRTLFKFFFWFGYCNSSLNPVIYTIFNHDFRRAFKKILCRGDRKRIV

[9] = biological target: T6, Alpha-2C adrenergic receptor (Homo sapiens, UniProt P18825); experiment: biochemical
T6 sequence (P18825 whole entry): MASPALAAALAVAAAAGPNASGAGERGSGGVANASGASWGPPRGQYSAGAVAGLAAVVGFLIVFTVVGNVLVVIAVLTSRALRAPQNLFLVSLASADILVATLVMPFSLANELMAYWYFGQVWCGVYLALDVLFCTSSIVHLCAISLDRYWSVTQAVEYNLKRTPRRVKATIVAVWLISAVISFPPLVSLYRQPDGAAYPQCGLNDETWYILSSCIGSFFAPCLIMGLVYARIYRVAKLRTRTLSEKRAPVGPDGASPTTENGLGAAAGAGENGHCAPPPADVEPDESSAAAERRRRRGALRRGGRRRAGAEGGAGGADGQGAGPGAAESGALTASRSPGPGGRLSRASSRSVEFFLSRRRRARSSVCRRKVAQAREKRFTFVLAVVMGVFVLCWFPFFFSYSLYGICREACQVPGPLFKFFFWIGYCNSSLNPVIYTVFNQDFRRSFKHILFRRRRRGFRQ

[10] = biological target: Voltage-dependent L-type calcium channel subunit alpha-1C (Rattus norvegicus, UniProt P22002); experiment: biochemical
Voltage-dependent L-type calcium channel subunit alpha-1C, sequence (P22002 whole entry): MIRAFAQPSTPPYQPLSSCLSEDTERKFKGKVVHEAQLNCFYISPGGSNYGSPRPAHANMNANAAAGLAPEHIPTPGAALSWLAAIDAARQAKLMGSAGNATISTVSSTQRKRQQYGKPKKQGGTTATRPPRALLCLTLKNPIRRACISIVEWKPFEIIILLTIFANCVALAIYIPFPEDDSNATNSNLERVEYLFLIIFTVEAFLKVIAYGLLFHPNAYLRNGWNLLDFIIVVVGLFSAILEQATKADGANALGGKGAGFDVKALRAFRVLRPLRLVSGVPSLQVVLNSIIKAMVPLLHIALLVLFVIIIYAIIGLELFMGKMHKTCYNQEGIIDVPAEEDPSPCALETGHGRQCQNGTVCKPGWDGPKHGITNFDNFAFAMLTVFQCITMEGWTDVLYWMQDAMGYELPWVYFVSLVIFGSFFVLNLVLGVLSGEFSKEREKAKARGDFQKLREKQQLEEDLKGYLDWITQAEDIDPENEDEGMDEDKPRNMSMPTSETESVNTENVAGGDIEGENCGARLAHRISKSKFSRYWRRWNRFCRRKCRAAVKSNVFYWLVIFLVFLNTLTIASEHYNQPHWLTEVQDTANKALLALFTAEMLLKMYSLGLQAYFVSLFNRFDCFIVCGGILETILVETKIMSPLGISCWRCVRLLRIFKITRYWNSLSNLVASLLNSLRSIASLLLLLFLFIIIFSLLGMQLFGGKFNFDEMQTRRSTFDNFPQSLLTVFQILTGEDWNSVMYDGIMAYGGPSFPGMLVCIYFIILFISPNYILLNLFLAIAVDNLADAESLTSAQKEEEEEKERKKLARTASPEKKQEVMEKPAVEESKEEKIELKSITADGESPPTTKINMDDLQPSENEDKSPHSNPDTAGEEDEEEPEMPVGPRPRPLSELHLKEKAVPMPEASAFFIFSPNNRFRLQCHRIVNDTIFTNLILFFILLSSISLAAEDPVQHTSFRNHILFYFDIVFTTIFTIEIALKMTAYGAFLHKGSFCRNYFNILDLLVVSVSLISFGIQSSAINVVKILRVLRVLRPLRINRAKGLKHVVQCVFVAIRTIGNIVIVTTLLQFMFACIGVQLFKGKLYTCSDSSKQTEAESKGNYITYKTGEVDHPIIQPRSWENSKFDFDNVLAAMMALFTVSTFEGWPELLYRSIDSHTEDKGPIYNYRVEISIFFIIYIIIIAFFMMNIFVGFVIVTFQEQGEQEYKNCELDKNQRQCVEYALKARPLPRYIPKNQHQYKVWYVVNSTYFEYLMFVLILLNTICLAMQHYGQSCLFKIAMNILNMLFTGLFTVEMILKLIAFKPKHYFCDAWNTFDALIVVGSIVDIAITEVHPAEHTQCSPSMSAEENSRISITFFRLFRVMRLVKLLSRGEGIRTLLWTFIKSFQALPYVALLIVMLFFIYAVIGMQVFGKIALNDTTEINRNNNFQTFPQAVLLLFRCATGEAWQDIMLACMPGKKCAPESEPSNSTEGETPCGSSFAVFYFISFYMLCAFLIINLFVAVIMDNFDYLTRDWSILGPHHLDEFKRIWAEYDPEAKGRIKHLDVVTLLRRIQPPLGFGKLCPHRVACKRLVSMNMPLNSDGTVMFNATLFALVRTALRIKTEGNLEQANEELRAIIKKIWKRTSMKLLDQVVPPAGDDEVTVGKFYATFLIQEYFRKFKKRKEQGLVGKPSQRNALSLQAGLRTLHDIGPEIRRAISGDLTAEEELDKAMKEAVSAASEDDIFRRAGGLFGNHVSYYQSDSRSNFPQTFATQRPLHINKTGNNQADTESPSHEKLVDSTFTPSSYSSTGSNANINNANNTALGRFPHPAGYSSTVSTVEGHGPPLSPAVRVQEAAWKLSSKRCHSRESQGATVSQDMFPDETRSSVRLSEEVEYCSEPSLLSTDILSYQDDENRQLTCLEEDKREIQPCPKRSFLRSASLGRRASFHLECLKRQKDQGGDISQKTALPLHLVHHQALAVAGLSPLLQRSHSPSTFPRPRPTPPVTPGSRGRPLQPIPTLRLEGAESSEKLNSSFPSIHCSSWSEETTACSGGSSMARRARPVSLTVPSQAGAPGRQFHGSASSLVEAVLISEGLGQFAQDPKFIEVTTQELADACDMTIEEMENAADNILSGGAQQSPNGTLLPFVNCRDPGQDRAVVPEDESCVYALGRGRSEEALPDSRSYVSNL
Description: Inhibition of [3H]nitrendipine binding to membrane homogenates of rat cardiac muscle.

[11] = biological target: Beta-2 adrenergic receptor (Cavia porcellus, UniProt Q8K4Z4); experiment: Effective dose for relaxation of guinea pig trachea.
Beta-2 adrenergic receptor, sequence (Q8K4Z4 whole entry): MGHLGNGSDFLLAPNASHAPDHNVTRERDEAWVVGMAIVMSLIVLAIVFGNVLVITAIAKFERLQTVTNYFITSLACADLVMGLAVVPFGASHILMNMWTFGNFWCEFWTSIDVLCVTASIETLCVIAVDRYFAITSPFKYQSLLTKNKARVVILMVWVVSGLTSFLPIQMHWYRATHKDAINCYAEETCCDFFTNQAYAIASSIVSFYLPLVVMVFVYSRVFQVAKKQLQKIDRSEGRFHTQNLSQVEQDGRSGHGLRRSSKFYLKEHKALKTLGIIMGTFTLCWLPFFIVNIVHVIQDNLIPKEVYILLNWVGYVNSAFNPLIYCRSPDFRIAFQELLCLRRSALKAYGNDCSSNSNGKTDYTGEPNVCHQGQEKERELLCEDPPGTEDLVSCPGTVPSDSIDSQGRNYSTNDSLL

[12] = biological target: Beta-1 adrenergic receptor (Cavia porcellus, UniProt B0FL73); experiment: Effective dose required to stimulate contractions in isolated guinea pig atrium.; type: functional, tissue-based, Cardiac atrium
Beta-1 adrenergic receptor, sequence (B0FL73 whole entry): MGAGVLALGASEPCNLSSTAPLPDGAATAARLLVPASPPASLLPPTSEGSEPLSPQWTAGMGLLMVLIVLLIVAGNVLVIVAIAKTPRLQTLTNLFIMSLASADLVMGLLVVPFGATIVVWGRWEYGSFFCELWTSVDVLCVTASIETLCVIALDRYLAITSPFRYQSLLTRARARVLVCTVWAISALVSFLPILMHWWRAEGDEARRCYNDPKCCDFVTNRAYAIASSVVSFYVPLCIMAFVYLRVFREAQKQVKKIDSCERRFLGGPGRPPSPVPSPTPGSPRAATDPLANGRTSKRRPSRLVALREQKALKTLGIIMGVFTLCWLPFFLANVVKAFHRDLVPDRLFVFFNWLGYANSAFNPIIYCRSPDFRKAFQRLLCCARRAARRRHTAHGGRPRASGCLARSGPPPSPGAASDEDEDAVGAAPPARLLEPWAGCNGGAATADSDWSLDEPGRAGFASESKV

[13] = biological target: T7, Monoamine oxidase (Homo sapiens, UniProt P21397+P27338); experiment: Binding affinity for imidazoline receptor I-2; type: protein assay
T7 sequence (P21397 whole entry): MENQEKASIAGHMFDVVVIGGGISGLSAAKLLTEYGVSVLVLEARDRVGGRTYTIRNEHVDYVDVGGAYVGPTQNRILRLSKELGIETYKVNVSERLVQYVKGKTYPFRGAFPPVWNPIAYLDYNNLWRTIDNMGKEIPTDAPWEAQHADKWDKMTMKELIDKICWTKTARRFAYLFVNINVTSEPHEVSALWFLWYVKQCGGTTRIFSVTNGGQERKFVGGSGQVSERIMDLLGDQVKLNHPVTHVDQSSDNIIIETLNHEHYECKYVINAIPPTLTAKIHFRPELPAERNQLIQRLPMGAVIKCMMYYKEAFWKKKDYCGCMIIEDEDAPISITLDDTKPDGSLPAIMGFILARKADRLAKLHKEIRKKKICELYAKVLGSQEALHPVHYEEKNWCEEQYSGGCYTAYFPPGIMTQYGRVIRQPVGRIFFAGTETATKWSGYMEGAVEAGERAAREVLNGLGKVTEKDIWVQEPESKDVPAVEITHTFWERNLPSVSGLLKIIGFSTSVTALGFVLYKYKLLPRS
T7 sequence (P27338 whole entry): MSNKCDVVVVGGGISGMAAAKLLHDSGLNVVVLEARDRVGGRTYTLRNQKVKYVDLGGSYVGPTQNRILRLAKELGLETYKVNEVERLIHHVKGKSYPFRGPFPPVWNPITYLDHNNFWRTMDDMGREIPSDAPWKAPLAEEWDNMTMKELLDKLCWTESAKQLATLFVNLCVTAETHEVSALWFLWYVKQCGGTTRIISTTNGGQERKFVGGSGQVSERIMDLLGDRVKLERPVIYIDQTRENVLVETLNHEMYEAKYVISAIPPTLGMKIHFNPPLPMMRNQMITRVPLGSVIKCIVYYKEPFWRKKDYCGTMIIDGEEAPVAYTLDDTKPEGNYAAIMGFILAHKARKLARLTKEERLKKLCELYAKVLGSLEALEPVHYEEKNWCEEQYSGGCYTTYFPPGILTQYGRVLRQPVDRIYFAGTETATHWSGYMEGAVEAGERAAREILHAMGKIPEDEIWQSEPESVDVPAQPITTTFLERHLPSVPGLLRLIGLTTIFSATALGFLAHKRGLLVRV

SMILES | Kb [1] [nM] | Kb [2] [nM] | Kb [3] [nM] | Ki [4] [nM] | Ki [5] [nM] | Ki [6] [nM] | Ki [7] [nM] | Ki [8] [nM] | Ki [9] [nM] | Ki [10] [nM] | EC50 [11] [nM] | EC50 [12] [nM] | Ki [13] [nM]
CC(C)=CCOc1ccc(Cl)c2c1CCN(C)CC2 | 76 | > 3000 | 150 | 33 | 33 | 87 | – | – | – | – | – | – | –
CN1CCc2c(Cl)ccc3oc(Br)c(c23)C1 | 40 | > 3000 | > 1000 | 72 | 3300 | 783 | 14 | 54 | 28 | – | – | – | –
CN1CCc2cccc(Cl)c2CC1 | 42 | 17 | 600 | 126 | 449 | 485 | 16 | 9.4 | – | – | – | – | –
CCc1sc2ccc(Cl)c3c2c1CN(C)CC3 | 84 | > 3000 | 56 | 1.2 | 58 | 15 | 15 | 31 | 35 | – | – | – | –
C=Cc1sc2ccc(Cl)c3c2c1CN(C)CC3 | 29 | > 3000 | 25 | 1.6 | 36 | 23 | 3.4 | 24 | 21 | – | – | – | –
CC1=C(C(N)=O)C(c2ccc([N+](=O)[O-])cc2)C(C(=O)NCCCN2CCC(c3ccccc3)(c3ccccc3)CC2)=C(C)N1 (stereo unspecified) | – | – | – | – | – | – | – | – | – | > 10 | – | – | –
CNC(=O)C1=C(C)NC(C)=C(C(=O)NCCCN2CCC(c3ccccc3)(c3ccccc3)CC2)C1c1ccc([N+](=O)[O-])cc1 (stereo unspecified) | – | – | – | – | 3.1 | – | – | – | – | > 5000 | – | – | –
COC(=O)C1=C(C)NC(C)=C(C(=O)NCCCN2CCC(c3ccccc3)(c3ccccc3)CC2)C1c1cccc([N+](=O)[O-])c1 (stereo unspecified) | – | – | – | – | 0.4 | – | – | – | – | 30 | – | – | –
CNC[C@H](O)c1ccc(O)c(O)c1 (stereo in doubt; (+)) [EPINEPHRINE] | – | – | – | – | – | – | – | – | – | – | 436 | 436 | –
CNC[C@H](O)c1ccc(O)c(O)c1 (stereo in doubt; (-)) [EPINEPHRINE] | – | – | – | – | – | – | – | – | – | – | 15 | 15 | –
c1ccc2c(c1)OCC(C1=NCCN1)O2 (stereo unspecified) [IDAZOXAN] | – | – | – | – | – | – | – | – | – | – | – | – | < 10

Source: ChEMBL document CHEMBL1128729, “Alpha- and beta-adrenoceptors: from the gene to the clinic. 2. Structure-activity relationships and therapeutic applications” (J Med Chem, 1995)
